Data on eleven compounds can be found in ChEMBL document CHEMBL3352162, “Synthesis of bi-/tricyclic azasugars fused thiazinan-4-one and their HIV-RT inhibitory activity” (Bioorg Med Chem Lett, 2014).

The target of this test is Human immunodeficiency virus type 1 reverse transcriptase (Human immunodeficiency virus 1, UniProt Q72547). As to the kind of experiment: Inhibition of HIV-1 reverse transcriptase after 1 hr by ELISA plate reader analysis.

The structures appear in SMILES notation.

Turning to `O=C1c2ccccc2S[C@H]2[C@@H](O)[C@@H](O)[C@H](O)CN12`, inhibition was half-maximal at 1.58 µM (IC50). Compound `O=C1c2ccccc2S[C@@H]2[C@@H](O)[C@@H](O)[C@H](O)CN12` yielded an IC50 of 3.83 µM. Compound `O=C1CCS[C@H]2[C@@H](O)[C@@H](O)[C@H](O)[C@H](CO)N12` came in with an IC50 of 12.9 µM.

For the compound `O=C1c2ccccc2S[C@H]2[C@@H](O)[C@@H](O)[C@H](O)[C@H](CO)N12`, the IC50 worked out at 0.49 µM.

`O=C1c2cccnc2S[C@H]2[C@@H](O)[C@@H](O)[C@H](O)[C@H](CO)N12` gave an IC50 of 31.4 µM. Next, `O=C1CCS[C@@H]2[C@@H](O)[C@@H](O)[C@H](O)[C@@H](CO)N12`: 1.41 µM. Next, `O=C1c2cccnc2S[C@@H]2[C@@H](O)[C@@H](O)[C@H](O)[C@@H](CO)N12`: 53.8 µM; `O=C1CCS[C@@H]2[C@@H](O)[C@@H](O)[C@H](O)[C@H](CO)N12`: 6.02 µM.

In turn, `O=C1c2ccccc2S[C@@H]2[C@@H](O)[C@@H](O)[C@H](O)[C@H](CO)N12` showed an IC50 of 1.32 µM. The compound `O=C1c2cccnc2S[C@@H]2[C@@H](O)[C@@H](O)[C@H](O)[C@H](CO)N12` showed a half-maximal inhibitory concentration (IC50) of 26.8 µM.

Regarding `O=C1c2ccccc2S[C@@H]2[C@@H](O)[C@@H](O)[C@H](O)[C@@H](CO)N12`, the midpoint of inhibition, the IC50, lay at 19.7 µM.
